Results: ChEMBL document CHEMBL1201862, “PubChem BioAssay data set” (2004)
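Results reflect a 48-hour exposure of cells in 96-well plates to compound at five concentrations. The concentration for 50% growth inhibition is given as GI50.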 Activity calls are given as the source filed them. Rule as the data show it: active = GI50 up to about 1.1 µM and inactive = higher.

What was measured:
Assay in all cases: NCI anticancer screen, dose series, 48 h
SF-268 = tested on: SF-268
BT-549 = tested on: BT-549
DU-145 = tested on: DU-145
MDA-N = tested on: MDA-N
SK-MEL-5 = tested on: SK-MEL-5
KM12 = tested on: KM12
OVCAR-8 = tested on: OVCAR-8
HL-60 = tested on: HL-60
K562 = tested on: K562
TK-10 = tested on: TK-10
NCI/ADR-RES = tested on: NCI/ADR-RES
Hs-578T = tested on: Hs-578T
UACC-62 = tested on: UACC-62
EKVX = tested on: EKVX
NCI-H23 = tested on: NCI-H23
NCI-H460 = tested on: NCI-H460
NCI-H522 = tested on: NCI-H522
ACHN = tested on: ACHN
UACC-257 = tested on: UACC-257
Malme-3M = tested on: Malme-3M
OVCAR-4 = tested on: OVCAR-4
PC-3 = tested on: PC-3
SNB-19 = tested on: SNB-19
A549 = tested on: A549
HT-29 = tested on: HT-29
HOP-62 = tested on: HOP-62
CAKI-1 = tested on: CAKI-1
LOX IMVI = tested on: LOX IMVI
T47D = tested on: T47D
SK-MEL-28 = tested on: SK-MEL-28
HOP-92 = tested on: HOP-92
UO-31 = tested on: UO-31
OVCAR-3 = tested on: OVCAR-3
MOLT-4 = tested on: MOLT-4
786-0 = tested on: 786-0
HCC 2998 = tested on: HCC 2998
HCT-15 = tested on: HCT-15
MCF7 = tested on: MCF7
SW-620 = tested on: SW-620
IGROV-1 = tested on: IGROV-1
SF-295 = tested on: SF-295
RXF 393 = tested on: RXF 393
HCT-116 = tested on: HCT-116
SR = tested on: SR
U-251 = tested on: U-251
SK-MEL-2 = tested on: SK-MEL-2
M14 = tested on: M14
NCI-H226 = tested on: NCI-H226
SK-OV-3 = tested on: SK-OV-3
A498 = tested on: A498
RPMI-8226 = tested on: RPMI-8226
MDA-MB-231 = tested on: MDA-MB-231
SNB-75 = tested on: SNB-75
SN12C = tested on: SN12C
COLO 205 = tested on: COLO 205
MDA-MB-435 = tested on: MDA-MB-435
SF-539 = tested on: SF-539
CCRF-CEM = tested on: CCRF-CEM
OVCAR-5 = tested on: OVCAR-5

Measured: GI50

CC(=O)n1nc(-c2nc3ccccc3nc2Cl)cc1Cl
inactive: SF-268 38.6 µM | BT-549 5.89 µM | DU-145 20.6 µM | MDA-N 8.36 µM | SK-MEL-5 4.68 µM | KM12 19.4 µM | OVCAR-8 26.4 µM | HL-60 8.02 µM | K562 3.61 µM | TK-10 37.4 µM | NCI/ADR-RES 22.3 µM | Hs-578T 34.5 µM | UACC-62 27.2 µM | EKVX 12.5 µM | NCI-H23 6.24 µM | NCI-H460 32.8 µM | NCI-H522 7.78 µM | ACHN 11.6 µM | UACC-257 > 68.1 µM | Malme-3M 23.4 µM | OVCAR-4 19.5 µM | PC-3 30.9 µM | SNB-19 30.5 µM | A549 29.5 µM | HT-29 23 µM | HOP-62 20.3 µM | CAKI-1 3.34 µM | LOX IMVI 5.47 µM | T47D 68.4 µM | SK-MEL-28 24.7 µM | HOP-92 > 69.8 µM | UO-31 1.39 µM | OVCAR-3 19.8 µM | MOLT-4 1.9 µM | 786-0 23.6 µM | HCC 2998 36.6 µM | MCF7 26.9 µM | SW-620 2.88 µM | IGROV-1 30.1 µM | SF-295 29.6 µM | RXF 393 40.7 µM | HCT-116 3.78 µM | SR 3.34 µM | U-251 26.3 µM | SK-MEL-2 25.6 µM | M14 4.43 µM | NCI-H226 10.3 µM | SK-OV-3 20.5 µM | A498 > 71.4 µM | RPMI-8226 13.6 µM | MDA-MB-231 28.8 µM | SNB-75 25.8 µM | SN12C 7.78 µM | COLO 205 18.4 µM | MDA-MB-435 3.94 µM | SF-539 2.88 µM | CCRF-CEM 2.45 µM | OVCAR-5 34.7 µM
11.2 µM: HCT-15

CC1(C)OC(C(=O)Nc2cc3c4ccccc4ccc3c3ccccc23)C(C(=O)N2CCCCC2)O1 (stereo not drawn)
0.419 µM: HCT-15
inactive: SF-268 2.43 µM | BT-549 47 µM | DU-145 5.97 µM | MDA-N 5.94 µM | SK-MEL-5 1.98 µM | KM12 2.18 µM | HL-60 1.41 µM | TK-10 > 22.6 µM | NCI/ADR-RES 2.08 µM | Hs-578T 3.72 µM | UACC-62 1.17 µM | EKVX > 54.8 µM | NCI-H23 > 21.4 µM | UACC-257 > 25.1 µM | Malme-3M > 100 µM | OVCAR-4 21.5 µM | PC-3 3.33 µM | SNB-19 4.2 µM | HOP-62 17.6 µM | T47D 6.62 µM | SK-MEL-28 > 39.4 µM | HOP-92 31.6 µM | UO-31 2.17 µM | OVCAR-3 2.29 µM | 786-0 1.77 µM | HCC 2998 > 74.1 µM | MCF7 1.16 µM | IGROV-1 1.32 µM | SF-295 1.32 µM | RXF 393 1.17 µM | U-251 1.14 µM | SK-MEL-2 9.18 µM | M14 3.56 µM | NCI-H226 60.4 µM | SK-OV-3 20.6 µM | A498 > 23.9 µM | MDA-MB-231 > 38.9 µM | SNB-75 2.74 µM | SN12C 9.18 µM | MDA-MB-435 2.7 µM | OVCAR-5 > 100 µM
active: OVCAR-8 0.957 µM | K562 0.619 µM | NCI-H460 0.385 µM | NCI-H522 0.863 µM | ACHN 0.897 µM | A549 1.04 µM | HT-29 0.74 µM | CAKI-1 0.493 µM | LOX IMVI 0.344 µM | MOLT-4 0.574 µM | SW-620 0.813 µM | HCT-116 0.507 µM | SR 0.0964 µM | RPMI-8226 0.592 µM | COLO 205 0.966 µM | SF-539 0.587 µM | CCRF-CEM 0.537 µM
